# In patent US20070049564A1 (Wyeth, priority 2005, published 2007):
# Tests used:
# Assay in all cases: MIC, broth microdilution
# [1] = test system: S. aureus GC 6335; details: Staphylococcus aureus
# [2] = test system: E. coli GC 2270; details: Escherichia coli
# [3] = test system: P. aeruginosa GC 2214; details: Pseudomonas aeruginosa
# [4] = test system: S. aureus GC 6469; details: Staphylococcus aureus
# [5] = test system: E. faecalis GC 2265; details: Enterococcus faecalis
# [6] = test system: E. coli GC 6465; details: Escherichia coli
# [7] = test system: S. aureus GC 1079; details: Staphylococcus aureus
# Description: (§1) Antimicrobial susceptibility testing. The in vitro activities of the antibiotics are determined by the broth microdilution method as recommended by the National Committee for Clinical Laboratory Standards (NCCLS) (1). Mueller-Hinton II broth (MHBII)(BBL Cockeysville, Md.) is the medium employed in the testing procedures. Microtiter plates containing serial dilutions of each antimicrobial agent are inoculated with each organism to yield the appropriate density (10^5 CFU/ml) in a 100 μl final volume. The plates are incubated for 18-22 hours at 35° C. in ambient air.
# Representative compounds were first incubated in mouse serum for an hour prior to the in vitro testing against a panel of selected gram-positive and gram-negative bacteria strains. All compounds were also pre-incubated in water for an hour prior to testing as control. Representative compounds of Formula I were incubated in human serum prior to MIC determination.
# [8] = test system: E. coli GC 3226; details: Escherichia coli
# [9] = test system: c. albicans GC 3066
# [10] = test system: E. faecium GC 2243; details: Enterococcus faecium
# [11] = test system: S. epidermidis GC 4935; details: Staphylococcus epidermidis
# [12] = test system: E. faecalis GC 2267; details: Enterococcus faecalis
# [13] = test system: E. coli GC 2233; details: Escherichia coli
# [14] = test system: E. coli GC 4560; details: Escherichia coli
# [15] = test system: E. coli GC 2203; details: Escherichia coli
# [16] = test system: S. aureus GC 1131; details: Staphylococcus aureus
# [17] = test system: E. coli GC 2271; details: Escherichia coli
# [18] = test system: E. coli GC 1073; details: Escherichia coli
# [19] = test system: S. aureus GC 6467; details: Staphylococcus aureus
# Description: as §1
# Representative compounds were first incubated in mouse serum for an hour prior to the in vitro testing against a panel of selected gram-positive and gram-negative bacteria strains. All compounds were also pre-incubated in water for an hour prior to testing as control.
# [20] = test system: E. coli GC 2272; details: Escherichia coli
# [21] = GC6335, S. aureus GC 6335, Mouse Serum pre-incubation
# [22] = GC6335, S. aureus GC 6335, Water pre-incubation
# [23] = GC2270, E. coli GC 2270, Mouse Serum pre-incubation
# [24] = GC2270, E. coli GC 2270, Water pre-incubation
# [25] = GC2214, P. aeruginosa GC 2214, Mouse Serum pre-incubation
# [26] = GC2214, P. aeruginosa GC 2214, Water pre-incubation
# [27] = GC6469, S. aureus GC 6469, Mouse Serum pre-incubation
# [28] = GC6469, S. aureus GC 6469, Water pre-incubation
# [29] = GC2265, E. faecalis GC 2265, Mouse Serum pre-incubation
# [30] = GC2265, E. faecalis GC 2265, Water pre-incubation
# [31] = GC6465, E. coli GC 6465, Mouse Serum pre-incubation
# [32] = GC6465, E. coli GC 6465, Water pre-incubation
# [33] = GC1079, S. aureus GC 1079, Mouse Serum pre-incubation
# [34] = GC1079, S. aureus GC 1079, Water pre-incubation
# [35] = GC3226, E. coli GC 3226, Mouse Serum pre-incubation
# [36] = GC3226, E. coli GC 3226, Water pre-incubation
# [37] = c. albicans GC 3066, Water pre-incubation
# [38] = GC2243, E. faecium GC 2243, Mouse Serum pre-incubation
# [39] = GC2243, E. faecium GC 2243, Water pre-incubation
# [40] = GC4935, S. epidermidis GC 4935, Mouse Serum pre-incubation
# [41] = GC4935, S. epidermidis GC 4935, Water pre-incubation
# [42] = GC2267, E. faecalis GC 2267, Mouse Serum pre-incubation
# [43] = GC2267, E. faecalis GC 2267, Water pre-incubation
# [44] = GC2233, E. coli GC 2233, Mouse Serum pre-incubation
# [45] = GC2233, E. coli GC 2233, Water pre-incubation
# [46] = GC4560, E. coli GC 4560, Mouse Serum pre-incubation
# [47] = GC4560, E. coli GC 4560, Water pre-incubation
# [48] = GC2203, E. coli GC 2203, Mouse Serum pre-incubation
# [49] = GC2203, E. coli GC 2203, Water pre-incubation
# [50] = GC1131, S. aureus GC 1131, Mouse Serum pre-incubation
# [51] = GC1131, S. aureus GC 1131, Water pre-incubation
# [52] = GC2271, E. coli GC 2271, Mouse Serum pre-incubation
# [53] = GC2271, E. coli GC 2271, Water pre-incubation
# [54] = GC1073, E. coli GC 1073, Mouse Serum pre-incubation
# [55] = GC1073, E. coli GC 1073, Water pre-incubation
# [56] = GC6467, S. aureus GC 6467, Mouse Serum pre-incubation
# [57] = GC6467, S. aureus GC 6467, Water pre-incubation
# [58] = GC2272, E. coli GC 2272, Mouse Serum pre-incubation
# [59] = GC2272, E. coli GC 2272, Water pre-incubation
structure (smiles),measurement,setting,value
"CCCN(CC(=O)Nc1cc(N(C)C)c2c(c1O)C(=O)C1=C(O)[C@]3(O)C(=O)C(C(N)=O)=C(O)C(N(C)C)C3CC1C2)C(=O)OCc1oc(=O)oc1-c1ccccc1 (stereo in doubt) [Example 110, (2-oxo-5-phenyl-1,3-dioxol-4-yl)methyl 2-{[(7R,10aS)-9-(aminocarbonyl)-4,7-bis(dimethylamino)-1,8,10a,11-tetrahydroxy-10,12-dioxo-5,5a,6,6a,7,10,10a,12-octahydrotetracen-2-yl]amino}-2-oxoethyl(propyl)carbamate]",MIC,"[1]; GC6335, pre-incubation in mouse serum",8 µg/mL
same,MIC,"[1]; GC6335, pre-incubation in water",8 µg/mL
same,MIC,"[2]; GC2270, pre-incubation in mouse serum",1 µg/mL
same,MIC,"[2]; GC2270, pre-incubation in water",1 µg/mL
same,MIC,"[3]; GC2214, pre-incubation in mouse serum",> 64 µg/mL
same,MIC,"[3]; GC2214, pre-incubation in water",> 64 µg/mL
same,MIC,"[4]; GC6469, pre-incubation in mouse serum",32 µg/mL
same,MIC,"[4]; GC6469, pre-incubation in water",32 µg/mL
same,MIC,"[5]; GC2265, pre-incubation in mouse serum",8 µg/mL
same,MIC,"[5]; GC2265, pre-incubation in water",4 µg/mL
same,MIC,"[6]; GC6465, pre-incubation in mouse serum",64 µg/mL
same,MIC,"[6]; GC6465, pre-incubation in water",> 64 µg/mL
same,MIC,"[7]; GC1079, pre-incubation in mouse serum",16 µg/mL
same,MIC,"[7]; GC1079, pre-incubation in water",16 µg/mL
same,MIC,"[8]; GC3226, pre-incubation in mouse serum",2 µg/mL
same,MIC,"[8]; GC3226, pre-incubation in water",4 µg/mL
same,MIC,"[9]; Candida albicans, GC3066",> 64 µg/mL
same,MIC,[9]; pre-incubation in water,>64 UG/ML
same,MIC,"[10]; GC2243, pre-incubation in mouse serum",0.5 µg/mL
same,MIC,"[10]; GC2243, pre-incubation in water",0.5 µg/mL
same,MIC,"[11]; GC4935, pre-incubation in mouse serum",4 µg/mL
same,MIC,"[11]; GC4935, pre-incubation in water",8 µg/mL
same,MIC,"[12]; GC2267, pre-incubation in mouse serum",8 µg/mL
same,MIC,"[12]; GC2267, pre-incubation in water",4 µg/mL
same,MIC,"[13]; GC2233, pre-incubation in mouse serum",0.5 µg/mL
same,MIC,"[13]; GC2233, pre-incubation in water",1 µg/mL
same,MIC,"[14]; GC4560, pre-incubation in mouse serum",0.25 µg/mL
same,MIC,"[14]; GC4560, pre-incubation in water",0.5 µg/mL
same,MIC,"[15]; GC2203, pre-incubation in mouse serum",1 µg/mL
same,MIC,"[15]; GC2203, pre-incubation in water",4 µg/mL
same,MIC,"[16]; GC1131, pre-incubation in mouse serum",2 µg/mL
same,MIC,"[16]; GC1131, pre-incubation in water",4 µg/mL
same,MIC,"[17]; GC2271, pre-incubation in mouse serum",1 µg/mL
same,MIC,"[17]; GC2271, pre-incubation in water",2 µg/mL
same,MIC,"[18]; GC1073, pre-incubation in mouse serum",2 µg/mL
same,MIC,"[18]; GC1073, pre-incubation in water",8 µg/mL
same,MIC,"[19]; GC6467, pre-incubation in mouse serum",32 µg/mL
same,MIC,"[19]; GC6467, pre-incubation in water",> 64 µg/mL
same,MIC,"[20]; GC2272, pre-incubation in mouse serum",1 µg/mL
same,MIC,"[20]; GC2272, pre-incubation in water",1 µg/mL
"CCCN(CC(=O)Nc1cc(N(C)C)c2c(c1O)C(=O)C1=C(O)[C@]3(O)C(=O)C(C(N)=O)=C(O)[C@@H](N(C)C)[C@@H]3C[C@@H]1C2)C(=O)OCc1ccccc1 [Example 14, benzyl 2-{[(5aR,6aS,7S,10aS)-9-(aminocarbonyl)-4,7-bis(dimethylamino)-1,8,10a,11-tetrahydroxy-10,12-dioxo-5,5a,6,6a,7,10,10a,12-octahydrotetracen-2-yl]amino}-2-oxoethyl(propyl)carbamate]",MIC,[1]; [21],1 µg/mL
same,MIC,[1]; [22],4 µg/mL
same,MIC,[2]; [23],> 64 µg/mL
same,MIC,[2]; [24],> 64 µg/mL
same,MIC,[3]; [25],> 64 µg/mL
same,MIC,[3]; [26],> 64 µg/mL
same,MIC,[4]; [27],2 µg/mL
same,MIC,[4]; [28],4 µg/mL
same,MIC,[5]; [29],2 µg/mL
same,MIC,[5]; [30],8 µg/mL
same,MIC,[6]; [31],> 64 µg/mL
same,MIC,[6]; [32],> 64 µg/mL
same,MIC,[7]; [33],1 µg/mL
same,MIC,[7]; [34],2 µg/mL
same,MIC,[8]; [35],> 64 µg/mL
same,MIC,[8]; [36],> 64 µg/mL
same,MIC,"[9]; Candida albicans, GC3066",> 64 µg/mL
same,MIC,[9]; [37],>64 UG/ML
same,MIC,[10]; [38],2 µg/mL
same,MIC,[10]; [39],4 µg/mL
same,MIC,[11]; [40],8 µg/mL
same,MIC,[11]; [41],8 µg/mL
same,MIC,[12]; [42],2 µg/mL
same,MIC,[12]; [43],8 µg/mL
same,MIC,[13]; [44],> 64 µg/mL
same,MIC,[13]; [45],> 64 µg/mL
same,MIC,[14]; [46],4 µg/mL
same,MIC,[14]; [47],4 µg/mL
same,MIC,[15]; [48],32 µg/mL
same,MIC,[15]; [49],64 µg/mL
same,MIC,[16]; [50],1 µg/mL
same,MIC,[16]; [51],2 µg/mL
same,MIC,[17]; [52],> 64 µg/mL
same,MIC,[17]; [53],> 64 µg/mL
same,MIC,[18]; [54],> 64 µg/mL
same,MIC,[18]; [55],> 64 µg/mL
same,MIC,[19]; [56],2 µg/mL
same,MIC,[19]; [57],4 µg/mL
same,MIC,[20]; [58],> 64 µg/mL
same,MIC,[20]; [59],> 64 µg/mL
"CCCCN(CC(=O)Nc1cc(N(C)C)c2c(c1O)C(=O)C1=C(O)[C@]3(O)C(=O)C(C(N)=O)=C(O)[C@@H](N(C)C)C3CC1C2)C(=O)OCOC(=O)c1ccc(OC)cc1 (stereo partly drawn) [Example 2, ({[(2-{[(7S,10aS)-9-(aminocarbonyl)-4,7-bis(dimethylamino)-1,8,10a,11-tetrahydroxy-10,12-dioxo-5,5a,6,6a,7,10,10a,12-octahydrotetracen-2-yl]amino}-2-oxoethyl)(butyl)amino]carbonyl}oxy)methyl 4-methoxybenzoate]",MIC,[1]; [21],8 µg/mL
same,MIC,[1]; [22],8 µg/mL
same,MIC,[2]; [23],1 µg/mL
same,MIC,[2]; [24],64 µg/mL
same,MIC,[3]; [25],> 64 µg/mL
same,MIC,[3]; [26],> 64 µg/mL
same,MIC,[4]; [27],2 µg/mL
same,MIC,[4]; [28],4 µg/mL
same,MIC,[5]; [29],4 µg/mL
same,MIC,[5]; [30],8 µg/mL
same,MIC,[6]; [31],8 µg/mL
same,MIC,[6]; [32],64 µg/mL
same,MIC,[7]; [33],8 µg/mL
same,MIC,[7]; [34],8 µg/mL
same,MIC,[8]; [35],4 µg/mL
same,MIC,[8]; [36],64 µg/mL
same,MIC,"[9]; Candida albicans, GC3066",> 64 µg/mL
same,MIC,[9]; [37],>64 UG/ML
same,MIC,[10]; [38],1 µg/mL
same,MIC,[10]; [39],4 µg/mL
same,MIC,[11]; [40],8 µg/mL
same,MIC,[11]; [41],8 µg/mL
same,MIC,[12]; [42],4 µg/mL
same,MIC,[12]; [43],4 µg/mL
same,MIC,[13]; [44],1 µg/mL
same,MIC,[13]; [45],64 µg/mL
same,MIC,[14]; [46],0.25 µg/mL
same,MIC,[14]; [47],4 µg/mL
same,MIC,[15]; [48],2 µg/mL
same,MIC,[15]; [49],64 µg/mL
same,MIC,[16]; [50],2 µg/mL
same,MIC,[16]; [51],4 µg/mL
same,MIC,[17]; [52],1 µg/mL
same,MIC,[17]; [53],64 µg/mL
same,MIC,[18]; [54],4 µg/mL
same,MIC,[18]; [55],64 µg/mL
same,MIC,[19]; [56],4 µg/mL
same,MIC,[19]; [57],8 µg/mL
same,MIC,[20]; [58],1 µg/mL
same,MIC,[20]; [59],64 µg/mL
